Results on ten molecules are retold here after PubChem BioAssay AID180 (DTP/NCI, 2004).

The experiment deals with BDF1 mice, Adenocarcinoma 755 s.c., tumor weight T/C. Description: NCI In Vivo Anticancer Drug Screen. Data for tumor model Adenocarcinoma 755 (subcutaneous) in B6D2F1 (BDF1) mice. Particulars: endpoint: mean tumor weight, higher = larger tumour. The procedure, abridged: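 In vivo antitumor screen on a transplantable tumor line. Result equals the measure in compound-treated animals divided by the same measure in vehicle controls.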

Where [1] appears, read: dose: 30.0 mg/kg/injection, schedule: Q01DX011 (ip), vehicle: carboxymethylcellulose (CMC).

Molecules are shown by their SMILES. Where “and” joins values, the source holds several entries; their conditions need not be identical. Equal values may be shown once.

The term T/C denotes the result in the treated group divided by that in the control group, in per cent. Take `S=P(N1CCCCCC1)(N1CC1)N1CC1`: the T/C by setting is: (dose: 1.0 mg/kg/injection, schedule: Q01DX011 (ip), vehicle: carboxymethylcellulose (CMC)) 92 % of control; (dose: 1.75 mg/kg/injection, schedule: Q01DX011 (ip), vehicle: saline) 58 % of control; (dose: 2.0 mg/kg/injection, schedule: Q01DX011 (ip), vehicle: carboxymethylcellulose (CMC)) 90 % of control; (dose: 3.13 mg/kg/injection, schedule: Q01DX011 (ip), vehicle: saline) 68 % of control; (dose: 3.5 mg/kg/injection, schedule: Q01DX011 (ip), vehicle: saline) 70 % of control; (dose: 4.0 mg/kg/injection, schedule: Q01DX011 (ip), vehicle: carboxymethylcellulose (CMC)) 38 % of control. Besides, the T/C was 26 % of control and 50 % of control (dose: 6.25 mg/kg/injection, schedule: Q01DX011 (ip), vehicle: saline); 36 % of control (dose: 6.75 mg/kg/injection, schedule: Q01DX011 (ip), vehicle: methylcellulose (MC)); 42 % of control (dose: 7.0 mg/kg/injection, schedule: Q01DX011 (ip), vehicle: saline); 96 % of control (dose: 7.5 mg/kg/injection, schedule: Q01DX011 (ip), vehicle: carboxymethylcellulose (CMC)); 23 % of control (dose: 8.0 mg/kg/injection, schedule: Q01DX011 (ip), vehicle: carboxymethylcellulose (CMC)); 33 % of control (dose: 13.5 mg/kg/injection, schedule: Q01DX011 (ip), vehicle: methylcellulose (MC)). In addition, the T/C (dose: 13.5 mg/kg/injection, schedule: Q01DX011 (ip), vehicle: saline) was 29 % of control; the T/C (dose: 14.0 mg/kg/injection, schedule: Q01DX011 (ip), vehicle: saline) was 5 % of control; the T/C (dose: 15.0 mg/kg/injection, schedule: Q01DX011 (ip), vehicle: carboxymethylcellulose (CMC)) was 43 % of control; the T/C (dose: 16.0 mg/kg/injection, schedule: Q01DX011 (ip), vehicle: carboxymethylcellulose (CMC)) is 6 % of control; the T/C (dose: 27.0 mg/kg/injection, schedule: Q01DX011 (ip), vehicle: saline) is 25 % of control; the T/C under setting [1] is 10 % of control. In addition, the T/C (dose: 54.0 mg/kg/injection, schedule: Q01DX011 (ip), vehicle: saline) was 24 % of control.
`CSc1ncc(Br)c(SC)n1`: the T/C was 102 % of control (dose: 31.0 mg/kg/injection, schedule: Q01DX011 (ip), vehicle: methylcellulose (MC)) and 93 % of control (dose: 62.0 mg/kg/injection, schedule: Q01DX011 (ip), vehicle: methylcellulose (MC)).
Consider `O=C1CCC(N2C(=O)c3ccccc3C2=O)C(=O)N1` (configuration not stated), for which the T/C is 48 % of control (dose: 250.0 mg/kg/injection, schedule: Q01DX011 (ip), vehicle: carboxymethylcellulose (CMC)) and 56 % of control (dose: 375.0 mg/kg/injection, schedule: Q01DX011 (ip), vehicle: carboxymethylcellulose (CMC)).
Take `COc1ccccc1NC(=O)CSC(N)=O`: the T/C runs as follows: (dose: 50.0 mg/kg/injection, schedule: Q01DX011 (ip), vehicle: methylcellulose (MC)) 106 % of control; (dose: 400.0 mg/kg/injection, schedule: Q01DX011 (ip), vehicle: carboxymethylcellulose (CMC)) 5 % of control.
As to `CCC(c1ccc(O)cc1)C(CC)c1ccc(OC)cc1` (configuration not stated), the T/C was 57 % of control (dose: 5.0 mg/kg/injection, schedule: Q01DX011 (sc), vehicle: steriod suspending solution); 56 % of control (dose: 10.0 mg/kg/injection, schedule: Q01DX011 (sc), vehicle: steriod suspending solution); 33 % of control (dose: 20.0 mg/kg/injection, schedule: Q01DX011 (sc), vehicle: steriod suspending solution); 33 % of control (dose: 31.0 mg/kg/injection, schedule: Q01DX011 (ip), vehicle: olive oil, sesame oil, peanut oil); 27 % of control (dose: 62.5 mg/kg/injection, schedule: Q01DX011 (ip), vehicle: olive oil, sesame oil, peanut oil); 45 % of control (dose: 125.0 mg/kg/injection, schedule: Q01DX011 (ip), vehicle: olive oil, sesame oil, peanut oil). For the same molecule, the T/C (dose: 250.0 mg/kg/injection, schedule: Q01DX011 (ip), vehicle: olive oil, sesame oil, peanut oil) is 33 % of control.
Regarding `NC(N)=N/N=C/c1c(O)ccc2ccccc12`, the T/C by setting is: (dose: 12.5 mg/kg/injection, schedule: Q01DX011 (ip), vehicle: saline) 77 % of control; (dose: 25.0 mg/kg/injection, schedule: Q01DX011 (ip), vehicle: saline) 67 % of control; (dose: 50.0 mg/kg/injection, schedule: Q01DX011 (ip), vehicle: saline) 54 % of control.
Turning to `Nc1nc(SCc2ccccc2)c2ncn(C3CCCO3)c2n1` (configuration not stated), the T/C runs as follows: (dose: 1.8 mg/kg/injection, schedule: Q01DX011 (ip), vehicle: methylcellulose (MC)) 68 % of control; (dose: 3.7 mg/kg/injection, schedule: Q01DX011 (ip), vehicle: methylcellulose (MC)) 45 % of control; (dose: 7.5 mg/kg/injection, schedule: Q01DX011 (ip), vehicle: methylcellulose (MC)) 2 % of control and 5 % of control; (dose: 20.0 mg/kg/injection, schedule: Q01DX011 (ip), vehicle: methylcellulose (MC)) 2 % of control.
For `CC(C)n1cnc2c(=S)nc[nH]c21`, the T/C (dose: 0.2 mg/kg/injection, schedule: Q01DX011 (ip), vehicle: carboxymethylcellulose (CMC)) was 114 % of control; the T/C (dose: 0.39 mg/kg/injection, schedule: Q01DX011 (ip), vehicle: carboxymethylcellulose (CMC)) was 67 % of control; the T/C (dose: 0.45 mg/kg/injection, schedule: Q01DX011 (ip), vehicle: carboxymethylcellulose (CMC)) was 63 % of control; the T/C (dose: 0.78 mg/kg/injection, schedule: Q01DX011 (ip), vehicle: carboxymethylcellulose (CMC)) is 111 % of control; the T/C (dose: 0.9 mg/kg/injection, schedule: Q01DX011 (ip), vehicle: carboxymethylcellulose (CMC)) was 62 % of control; the T/C (dose: 0.9 mg/kg/injection, schedule: Q01DX011 (oral), vehicle: carboxymethylcellulose (CMC)) was 52 % of control. In addition, the T/C (dose: 1.56 mg/kg/injection, schedule: Q01DX011 (ip), vehicle: carboxymethylcellulose (CMC)) was 50 % of control; the T/C (dose: 1.8 mg/kg/injection, schedule: Q01DX011 (ip), vehicle: carboxymethylcellulose (CMC)) is 15 % of control; the T/C (dose: 1.8 mg/kg/injection, schedule: Q01DX011 (oral), vehicle: carboxymethylcellulose (CMC)) was 11 % of control; the T/C (dose: 3.12 mg/kg/injection, schedule: Q01DX011 (ip), vehicle: carboxymethylcellulose (CMC)) was 9 % of control; the T/C (dose: 3.6 mg/kg/injection, schedule: Q01DX011 (ip), vehicle: carboxymethylcellulose (CMC)) was 1 % of control; the T/C (dose: 3.6 mg/kg/injection, schedule: Q01DX011 (oral), vehicle: carboxymethylcellulose (CMC)) was 5 % of control. The T/C reads like this: (dose: 3.62 mg/kg/injection, schedule: Q01DX011 (ip), vehicle: carboxymethylcellulose (CMC)) 7 % of control and 14 % of control; (dose: 6.25 mg/kg/injection, schedule: Q01DX011 (ip), vehicle: carboxymethylcellulose (CMC)) 6 % of control; (dose: 7.25 mg/kg/injection, schedule: Q01DX011 (ip), vehicle: carboxymethylcellulose (CMC)) 3 % of control and 6 % of control; (dose: 7.25 mg/kg/injection, schedule: Q01DX011 (oral), vehicle: carboxymethylcellulose (CMC)) 11 % of control; (dose: 12.5 mg/kg/injection, schedule: Q01DX011 (ip), vehicle: carboxymethylcellulose (CMC)) 3 % of control; (dose: 14.5 mg/kg/injection, schedule: Q01DX011 (ip), vehicle: carboxymethylcellulose (CMC)) 1 % of control. Further, the T/C was 8 % of control (dose: 25.0 mg/kg/injection, schedule: Q01DX011 (ip), vehicle: carboxymethylcellulose (CMC)); 2 % of control (dose: 29.0 mg/kg/injection, schedule: Q01DX011 (oral), vehicle: carboxymethylcellulose (CMC)); 3 % of control and 6 % of control (dose: 50.0 mg/kg/injection, schedule: Q01DX011 (ip), vehicle: carboxymethylcellulose (CMC)).
For `COc1ccc2c(c1)CCC(c1ccccc1)=C2c1ccc(OCCN2CCCC2)cc1`, the T/C is, setting by setting: (dose: 3.0 mg/kg/injection, schedule: Q01DX011 (sc), vehicle: steriod suspending solution) 86 % of control; (dose: 6.0 mg/kg/injection, schedule: Q01DX011 (sc), vehicle: steriod suspending solution) 82 % of control; (dose: 12.0 mg/kg/injection, schedule: Q01DX011 (sc), vehicle: steriod suspending solution) 34 % of control; (dose: 25.0 mg/kg/injection, schedule: Q01DX011 (sc), vehicle: steriod suspending solution) 26 % of control.
Consider `OCC1OC(n2cnc3c(Br)ncnc32)C(O)C1O` (configuration not stated), for which the T/C under setting [1] is 74 % of control; the T/C (dose: 120.0 mg/kg/injection, schedule: Q01DX011 (ip), vehicle: carboxymethylcellulose (CMC)) is 63 % of control; the T/C (dose: 240.0 mg/kg/injection, schedule: Q01DX011 (ip), vehicle: carboxymethylcellulose (CMC)) is 49 % of control.
